pIC50: −log10 of the molar value.
Tested on: XBP1(u)-luciferase splicing reporter in HepG2 hepatoma cells
Assay: HepG2 XBP1 reporter assay (XBP1(u)-Luc)
Type: cell-based
Settings: 6 hours after compound addition, Table 4
Excerpt: HepG2 XBP1 Reporter Assay
HepG2 hepatoma cells were transduced with a retrovirus encoding the cDNA for unspliced (u) XBP1, which contains a non-processed intron, fused to the cDNA for firefly luciferase. Upon induction of ER stress, the non-processed intron of XBP1(u) is spliced out by active IRE1alpha endonuclease. The resulting spliced (s) XBP1 is now in frame with luciferase which causes the production of active luciferase protein, resulting in bioluminescence
HepG2 XBP1(u)-Luc cells were plated […] Cultured cells with a stably transfected reporter construct were plated at approximately 30,000 cells per well into 96 well multi-well plates for twenty four hours. The testing compounds were then added to the wells in 3-fold serial dilutions using a twenty seven micromolar top concentration. A series of control wells for each cell type received only compound solvent. Six hours after the addition of compound, reporter activity for luciferase was assayed, by addition of the SteadyGlo luminescence reagent (Promega). The reporter luminescence activity was measured using Pherastar plate reader (BMG Labtech). Readings was normalized to DMSO only treated cells, and normalized activities were then used in the IC50 calculations. The HepG2 XBP1 reporter assay data are summarized in Tables 3-5: A<0.6 μM; 0.6 μM≤B<2.0 μM; 2.0 μM≤C<5.0 μM; D≥5.0 μM.

SMILES | pIC50
COc1cc(Cl)c([C@H]2COCCCN2c2cc(C)nc(N)n2)cc1O [C-95] | > 6.22

Same assay, conditions: Homo sapiens, 6 hours after compound addition, Table 4

SMILES | pIC50
Cc1cc(N2CCCOCC2c2cc(CS(C)(=O)=O)ccc2Cl)nc(N)n1 (stereo in doubt) [C-52, 4-[(R)-3-(2-Chloro-5-methanesulfonylmethyl-phenyl)-[1,4]oxazepan-4-yl]-6-methyl-pyrimidin-2-ylamine] | 5.70 to 6.22
Cc1cc(Cl)c(C2COCCCN2c2cc(N)nc(N)n2)cc1C (stereo not drawn) [C-27] | 5.70 to 6.22
CCOc1cc(C2COCCCN2c2cc(C)nc(N)n2)c(Cl)cc1OC (stereo not drawn) [C-29] | > 6.22
COC(=O)COc1cc(Cl)c(C2COCCCN2c2cc(C)nc(N)n2)cc1OC (stereo not drawn) [C-44] | 5.70 to 6.22
C=CCOc1cc(Cl)c(C2COCCCN2c2cc(C)nc(N)n2)cc1OC (stereo not drawn) [C-45] | 5.70 to 6.22
CCCOc1cc(Cl)c(C2COCCCN2c2cc(C)nc(N)n2)cc1OC (stereo not drawn) [C-47] | 5.70 to 6.22
Cc1cc(N2CCCOCC2c2cc(F)c(-c3ccncc3)cc2Cl)nc(N)n1 (stereo not drawn) [C-48] | 5.70 to 6.22
Cc1cc(N2CCCOC[C@@H]2c2ccc(CS(C)(=O)=O)cc2F)nc(N)n1 [C-50, 4-[(S)-3-(2-Fluoro-4-methanesulfonylmethyl-phenyl)-[1,4]oxazepan-4-yl]-6-methyl-pyrimidin-2-ylamine] | > 6.22
Cc1cc(N2CCCOCC2c2ccc(OCC(N)=O)cc2Cl)nc(N)n1 (stereo not drawn) [C-53, 2-{4-[4-(2-Amino-6-methyl-pyrimidin-4-yl)-[1,4]oxazepan-3-yl]-3-chloro-phenoxy}-acetamide] | > 6.22
Cc1cc(N)nc(N2CCCOCC2c2cc3c(cc2Cl)CCN3C)c1 (stereo not drawn) [C-54] | > 6.22
Cc1cc(N2CCCOCC2c2cc3c(cc2Cl)OCC(C)(C)CO3)nc(N)n1 (stereo not drawn) [C-55] | 5.70 to 6.22
Cc1cc(N2CCCOCC2c2cc(Cl)c(OC(F)F)cc2Cl)nc(N)n1 (stereo not drawn) [C-57] | 5.70 to 6.22
Cc1cc(N2CCCOCC2c2ccc(O[C@H](C)CO)cc2Cl)nc(N)n1 (stereo partly drawn) [C-60, (R)-2-{4-[4-(2-Amino-6-methyl-pyrimidin-4-yl)-[1,4]oxazepan-3-yl]-3-chloro-phenoxy}-propan-1-ol] | 5.70 to 6.22
Cc1cc(N2CCCOCC2c2ccc(OC[C@H](O)CO)cc2Cl)nc(N)n1 (stereo partly drawn) [C-61, (R)-3-{4-[4-(2-Amino-6-methyl-pyrimidin-4-yl)-[1,4]oxazepan-3-yl]-3-chloro-phenoxy}-propane-1,2-diol] | > 6.22
Cc1cc(N2CC3(CC3)COCC2c2ccc(CS(C)(=O)=O)cc2Cl)nc(N)n1 (stereo not drawn) [C-62, 4-[7-(2-Chloro-4-methanesulfonylmethyl-phenyl)-5-oxa-8-aza-spiro[2.6]non-8-yl]-6-methyl-pyrimidin-2-ylamine] | ≤ 5.30
Cc1cc(N2CC(C)COCC2c2ccc(CS(C)(=O)=O)cc2Cl)nc(N)n1 (stereo not drawn) [C-63, 4-[3-(2-Chloro-4-methanesulfonylmethyl-phenyl)-6-methyl-[1,4]oxazepan-4-yl]-6-methyl-pyrimidin-2-ylamine] | ≤ 5.30
Cc1cc(N2CCCOC[C@@H]2c2ccc(OC[C@@H](O)CO)cc2Cl)nc(N)n1 [C-64, (S)-3-{4-[(S)-4-(2-Amino-6-methyl-pyrimidin-4-yl)-[1,4]oxazepan-3-yl]-3-chloro-phenoxy}-propane-1,2-diol] | 5.30 to 5.70
Nc1nccc(N2CCCOC[C@H]2c2cc3c(cc2Cl)OCCCO3)n1 [C-71] | ≤ 5.30
Nc1nccc(N2CCCOC[C@@H]2c2cc3c(cc2Cl)OCCCO3)n1 [C-72] | > 6.22
Cc1cc(N2CCCOCC2c2ccc(CS(C)(=O)=O)cc2OC(F)F)nc(N)n1 (stereo not drawn) [C-75] | > 6.22
Cc1cc(N2CCCOCC2c2cc(N)c(C(F)(F)F)cc2Cl)nc(N)n1 (stereo not drawn) [C-77] | 5.70 to 6.22
COc1cc(Cl)c([C@H]2COCCCN2c2cc(C)nc(N)n2)cc1OC [C-80] | > 6.22

SMILES | pIC50
Cc1cc(N2CCCOCC2c2ccc(CS(C)(=O)=O)nc2Cl)nc(N)n1 (stereo not drawn) [C-82] | 5.70 to 6.22
CCOc1cc(Cl)c([C@H]2COCCCN2c2cc(C)nc(N)n2)cc1OC [C-85] | > 6.22
CCOc1cc(Cl)c([C@@H]2COCCCN2c2cc(C)nc(N)n2)cc1OC [C-86] | ≤ 5.30
CCOC(=O)COc1cc(Cl)c(C2COCCCN2c2cc(C)nc(N)n2)cc1OC (stereo not drawn) [C-89] | 5.70 to 6.22
Cc1cc(N2CCCOCC2c2cc3c(cc2Cl)OCC2(CC2)CO3)nc(N)n1 (stereo not drawn) [C-90] | > 6.22
CCCOc1cc(Cl)c(C2COCCCN2c2cc(C)nc(N)n2)cc1OCC (stereo not drawn) [C-91] | 5.70 to 6.22
Cc1cc(N2CCCOC[C@@H]2c2cc3c(cc2Cl)n(C)c(=O)n3C)nc(N)n1 [C-93] | > 6.22
COc1cc(C2COCCCN2c2cc(C)nc(N)n2)c(Cl)cc1OCC(N)=O (stereo not drawn) [C-97] | 5.70 to 6.22
COc1cc(C2COCCCN2c2cc(C)nc(N)n2)c(Cl)cc1OCC#N (stereo not drawn) [C-98] | > 6.22
COc1cc(C2COCCCN2c2nc(C)nc(N)n2)c(Cl)cc1N1CCCCC1 (stereo not drawn) [C-101] | 5.70 to 6.22
COc1cc(C2COCCCN2c2ccnc(N)n2)c(Cl)cc1OC1CCCC1 (stereo not drawn) [C-102] | 5.70 to 6.22
CCOc1cc(Cl)c([C@H]2COCCCN2c2cc(C)nc(N)n2)cc1OCC [C-103] | > 6.22
CCOc1cc(Cl)c([C@@H]2COCCCN2c2cc(C)nc(N)n2)cc1OCC [C-104] | ≤ 5.30
CSCOc1ccc(C2COCCCN2c2cc(C)nc(N)n2)c(Cl)c1 (stereo not drawn) [C-105, 4-[3-(2-Chloro-4-methylsulfanylmethoxy-phenyl)-[1,4]oxazepan-4-yl]-6-methyl-pyrimidin-2-ylamine] | > 6.22
CC[C@@H]1COC[C@@H](c2ccc(CS(C)(=O)=O)cc2Cl)N(c2cc(C)nc(N)n2)C1 [C-110] | ≤ 5.30
Cc1cc(N2CCCOCC2c2ccc(CS(C)(=O)=O)cc2OC(F)(F)F)nc(N)n1 (stereo not drawn) [C-113] | > 6.22
Cc1cc(N2CCCOC[C@@H]2c2cc(C(F)(F)F)c(N)cc2Cl)nc(N)n1 [C-119] | > 6.22
Cc1cc(N2CCCOCC2c2ccc(OCS(C)(=O)=O)cc2Cl)nc(N)n1 (stereo not drawn) [C-120, 4-[3-(2-Chloro-4-methanesulfonylmethoxy-phenyl)-[1,4]oxazepan-4-yl]-6-methyl-pyrimidin-2-ylamine] | > 6.22
CSCOc1ccc([C@H]2COCCCN2c2cc(C)nc(N)n2)c(Cl)c1 [C-121, 4-[(S)-3-(2-Chloro-4-methylsulfanylmethoxy-phenyl)-[1,4]oxazepan-4-yl]-6-methyl-pyrimidin-2-ylamine] | ≤ 5.30
CSCOc1ccc([C@@H]2COCCCN2c2cc(C)nc(N)n2)c(Cl)c1 [C-122, 4-[(R)-3-(2-Chloro-4-methylsulfanylmethoxy-phenyl)-[1,4]oxazepan-4-yl]-6-methyl-pyrimidin-2-ylamine] | > 6.22
CC1=C(F)CN(c2ccc([C@H]3COCCCN3c3cc(C)nc(N)n3)c(Cl)c2)CC1 [C-123] | 5.70 to 6.22
Cc1cc(N2CC(O)COC[C@@H]2c2ccc(N3CCC(C)(O)CC3)cc2Cl)nc(N)n1 (stereo partly drawn) [C-124] | > 6.22

Results, then the molecule that gave them:

pIC50 | SMILES
5.70 to 6.22 | Cc1cc(N2CCCOCC2c2cc(S(N)(=O)=O)c(Cl)cc2Cl)nc(N)n1 (stereo not drawn) [C-8]
5.70 to 6.22 | Cc1cc(N2CCCOCC2c2cc(O)c(Cl)cc2Cl)nc(N)n1 (stereo not drawn) [C-9]
5.30 to 5.70 | Cc1cc(N2CCCOCC2c2cc(C)c(Cl)cc2Cl)nc(N)n1 (stereo not drawn) [C-10]
> 6.22 | CNc1cc(Cl)c(C2COCCCN2c2cc(C)nc(N)n2)cc1C (stereo not drawn) [C-25]
5.70 to 6.22 | Cc1cc(N2CCCOCC2c2cc3c(cc2Cl)CCC3)nc(N)n1 (stereo not drawn) [C-26]
5.70 to 6.22 | COc1cc(Cl)c(C2COCCCN2c2cc(C)nc(N)n2)cc1F (stereo not drawn) [C-28]
> 6.22 | Cc1cc(N2CCCOCC2c2cc3c(cc2Cl)NCCC3)nc(N)n1 (stereo not drawn) [C-43]
5.30 to 5.70 | COc1cc(C2COCCCN2c2cc(C)nc(N)n2)c(Cl)cc1Cl (stereo not drawn) [C-46]
5.30 to 5.70 | COc1cc(Cl)c(C2COCCCN2c2cc(C)nc(N)n2)cc1OC1CCC1 (stereo not drawn) [C-56]
> 6.22 | Cc1cc(N2CCCOC[C@@H]2c2cc3c(cc2Cl)NCC3)nc(N)n1 [C-59]
≤ 5.30 | Cc1cc(N2CCCOC[C@@H]2c2cc3c(cc2Cl)OCC(=O)N3)nc(N)n1 [C-67]
> 6.22 | Cc1cc(N2CCCOC[C@H]2c2cc3c(cc2Cl)OCC(=O)N3)nc(N)n1 [C-68]
> 6.22 | Cc1cc(N2CCCOC[C@@H]2c2cc3c(cc2Cl)OCCO3)nc(N)n1 [C-70]
> 6.22 | COc1cc(C2COCCCN2c2cc(C)nc(N)n2)c(Cl)cc1N (stereo not drawn) [C-76]
> 6.22 | COc1cc([C@H]2COCCCN2c2cc(C)nc(N)n2)c(Cl)cc1O [C-78]
≤ 5.30 | COc1cc([C@@H]2COCCCN2c2cc(C)nc(N)n2)c(Cl)cc1O [C-79]
≤ 5.30 | COc1cc(Cl)c([C@@H]2COCCCN2c2cc(C)nc(N)n2)cc1OC [C-81]
5.70 to 6.22 | Cc1cc(N2CCCOC[C@@H]2c2cc(Cl)c(O)cc2Cl)nc(N)n1 [C-87]
5.30 to 5.70 | Cc1cc(N2CCCOCC2c2cc3c(cc2Cl)CCCN3)nc(N)n1 (stereo not drawn) [C-88]
> 6.22 | COc1cc(Cl)c([C@@H]2COCCCN2c2cc(C)nc(N)n2)cc1O [C-94]
5.70 to 6.22 | Cc1cc(N2CCCOCC2c2cc3c(cc2Cl)COCO3)nc(N)n1 (stereo not drawn) [C-96]
5.70 to 6.22 | COc1cc(Cl)c(C2COCCCN2c2cc(C)nc(N)n2)cc1C (stereo not drawn) [C-99]
5.30 to 5.70 | Cc1cc(N2CCCOCC2c2cc(Cl)c(F)cc2Cl)nc(N)n1 (stereo not drawn) [C-100]
5.70 to 6.22 | Cc1cc(N2CCCOCC2c2cc(C)c(N3CCCC3)cc2Cl)nc(N)n1 (stereo not drawn) [C-112]
≤ 5.30 | Cc1cc(N2CCCOC[C@H]2c2cc(C)c(N)cc2Cl)nc(N)n1 [C-114]
> 6.22 | Cc1cc(N2CCCOC[C@@H]2c2cc(C)c(N)cc2Cl)nc(N)n1 [C-115]
> 6.22 | CCOc1cc(Cl)c([C@H]2COCCCN2c2cc(C)nc(N)n2)cc1Cl [C-117]
